Laboratory results published in patent publication US20170246111A1, “ACTIVE-LOADED PARTICULATE MATERIALS FOR TOPICAL ADMINISTRATION” (PHARMASOL GMBH, priority 2014, published 2017).

How the values were obtained:
[1] = 40 min
Procedure: 35.0% azithromycin physical mixture was as well dispersed in Milli-Q® water to get a final concentration of azithromycin of 5.6% in vials. Furthermore, 5.6% coarse drug powder was suspended in Milli-Q® water for comparison. The samples were stored at 25° C. shaking with 100 rpm in an Innova® 4230 shaker for 40 minutes. To separate the dissolved drug, the samples were first centrifuged (17,968×g; 10 minutes) and subsequently the supernatant was filtered (50 nm pore size, Whatman® 110603 filter). The drug concentration in such obtained sample was determined by HPLC.

[2] = at 25° C. in water, Mauludin PhD thesis 2008; cited from earlier work

Row | SMILES | saturation solubility in water [1] [µg/mL] | saturation solubility Cs [2]
1 | CC[C@H]1OC(=O)[C@H](C)[C@@H](O[C@H]2C[C@@](C)(OC)[C@@H](O)[C@H](C)O2)[C@H](C)[C@@H](O[C@@H]2O[C@H](C)C[C@H](N(C)C)[C@H]2O)[C@](C)(O)C[C@@H](C)CN(C)[C@H](C)[C@@H](O)[C@]1(C)O [azithromycin raw drug powder, azithromycin] | 93 | –
2 | COc1ccc([C@@H]2CC(=O)c3c(O)cc(O[C@@H]4O[C@H](CO[C@@H]5O[C@@H](C)[C@H](O)[C@@H](O)[C@H]5O)[C@@H](O)[C@H](O)[C@H]4O)cc3O2)cc1O [hesperidin raw powder, hesperidin] | – | about 20 μg/ml
